Measurements taken from patent US4468469A, “Substituted phenylacetic acids and salts as TBP blocking agents in iodothyronine immunoassays” (Miles Laboratories, Inc., priority 1982, dated 1984).

Columns and labels:
[1] = Optical absorption spectra; assay type: physicochemical
[2] = target: apoglucose oxidase (Aspergillus niger, UniProt P13006); test: Activation of apoglucose oxidase by FAD-labeled conjugate (ANS comparison); assay type: biochemical
Description: For the purposes of comparison, a series of apoenzyme reactivation measurements were set up with different concentrations of the conventionally used blocking agent ANS. The following reagents were prepared:
0.105M potassium phosphate buffer, pH 7.0
1.1% (w:v) bovine serum albumin
5.26 nM FAD-labeled conjugate, supra
4 μM apoglucose oxidase, supra
50 mM phosphate buffer, pH 7.0
Apoenzyme activity was determined by placing 50 μl of Reagent B in a cuvette and starting the reaction by addition of 1.90 ml of Reagent A. The assay reactions were incubated for 10 minutes at room temperature and the absorbances at 520 nm recorded.

[3] = tested on: anti(thyroxine) antiserum / apoglucose oxidase; test: Apoenzyme reactivation immunoassay system for serum thyroxine; assay type: biochemical; conditions: 2 mM sodium salt of dissociating agent in buffer
Description: Standard curves for serum thyroxine were generated using a semiautomated assay protocol on the Gilford Clinical Chemistry Analyzer System 203-S (Gilford Instrument Laboratories, Oberline, OH, USA). […] The FAD-thyroxine conjugate (40 nM in 0.1M sodium phosphate, pH 7.0, 0.01% Triton X-100) as a 0.05 ml aliquot was added to the reaction cup and allowed to equilibrate for 30 seconds. The reaction was initiated by addition of 0.10 ml 1.0 μM apoglucose oxidase, 2 mM 4-aminoantipyrine, 12% glycerol, 80 mM sodium phosphate, pH 7.0. The absorbance at 520 nm was recorded after an 8 minute incubation.

[4] = tested on: serum proteins (thyroxine binding protein, TBP); test: Effect of pH on the dissociation of iodothyronine from serum proteins; set-up: species or system human; conditions: over the range pH 6.0-8.0; 2.0 mM
Description: Radioactive iodine labeled thyroxine (^125 I-thyroxine obtained from Amersham-Searle, Arlington Heights, IL, USA) was equilibrated with 5 ml of normal human serum for 48 hours at 4° C. […] After 5 minutes of incubation at room temperature, a 165 μl aliquot was applied to a Sephadex® column from a Seralute® thyroxine assay kit (Miles Laboratories, Inc., Ames Division, Elkhart, IN, USA), which had been equilibrated with 0.1M sodium phosphate, pH 7.0. The total radioactivity applied to the columns was measured and the undissociated material was washed through the column with 3 ml of buffer. The columns were counted to determine the percentage of thyroxine dissociated from the serum proteins.
Using the column procedure described in the second study in Example 1, the pH of the 0.1M sodium phosphate was varied and the concentration of the dissociating agent held constant at 2.0 mM. The columns were equilibrated with buffer containing the dissociating agent at the given pH and 165 μl of the serum diluted in buffer at the given pH (as described above) was applied to the column. The total counts were measured and then the columns were washed with buffer at the given pH. The counts remaining on the column represent the percentage of iodothyronine dissociated.

[5] = 50 μM solution in 0.1M phosphate buffer, pH 7.0

apoglucose oxidase, sequence (P13006 17-605): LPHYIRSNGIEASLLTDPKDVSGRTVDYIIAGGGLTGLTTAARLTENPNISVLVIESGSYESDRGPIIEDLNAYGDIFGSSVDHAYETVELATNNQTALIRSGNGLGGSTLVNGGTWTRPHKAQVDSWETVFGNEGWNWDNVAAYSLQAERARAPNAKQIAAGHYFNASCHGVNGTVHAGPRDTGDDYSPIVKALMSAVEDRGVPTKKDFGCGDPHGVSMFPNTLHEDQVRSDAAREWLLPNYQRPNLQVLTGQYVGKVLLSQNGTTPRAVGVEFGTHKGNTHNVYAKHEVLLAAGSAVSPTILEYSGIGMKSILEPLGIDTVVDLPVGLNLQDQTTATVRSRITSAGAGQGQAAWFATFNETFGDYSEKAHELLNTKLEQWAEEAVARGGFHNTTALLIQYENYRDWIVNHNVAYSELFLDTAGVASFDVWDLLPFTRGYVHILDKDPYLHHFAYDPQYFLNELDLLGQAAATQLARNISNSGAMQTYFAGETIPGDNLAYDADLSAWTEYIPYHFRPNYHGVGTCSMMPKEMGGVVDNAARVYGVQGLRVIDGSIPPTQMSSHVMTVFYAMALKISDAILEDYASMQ

O=S(=O)(O)c1cccc2cccc(Nc3ccccc3)c12 [ANS, 8-anilino-1-naphthalenesulfonic acid]
broad absorption band [1, 5]: 300-400 nm
wavelength of absorption peak [1, 5]: about 350 nm
absorption peak height ([1]; 50 μM solution in 0.1M phosphate buffer, pH 7.0, at about 350 nm): 0.5
activity at 100 µM ([2]; 10 min, pH 7, 0.1 mM ANS in Reagent A, room temperature, read-out: Percent Apoglucose Oxidase Activity): 64%
activity at 200 µM ([2]; 10 min, pH 7, 0.2 mM ANS in Reagent A, room temperature, read-out: Percent Apoglucose Oxidase Activity): 46%
activity at 500 µM ([2]; 10 min, pH 7, 0.5 mM ANS in Reagent A, room temperature, read-out: Percent Apoglucose Oxidase Activity): 13%
activity at 1000 µM ([2]; 10 min, pH 7, 1.0 mM ANS in Reagent A, room temperature, read-out: Percent Apoglucose Oxidase Activity): 0%
effect on the recombination reaction of apoglucose oxidase and FAD-labeled conjugate ([2]; ANS concentrations above about 1.0 mM): totally inhibit

O=C(O)Cc1ccccc1Nc1c(Cl)cccc1Cl [Diclofenac, 2-(2,6-dichlorophenylamino)phenylacetic acid]
Absorbance (520 nm) ([3]; Thyroxine Standard 0 μg/L): 0.619
Absorbance (520 nm) ([3]; Thyroxine Standard 25 μg/L): 0.620
Absorbance (520 nm) ([3]; Thyroxine Standard 75 μg/L): 0.647
Absorbance (520 nm) ([3]; Thyroxine Standard 125 μg/L): 0.678
Absorbance (520 nm) ([3]; Thyroxine Standard 200 μg/L): 0.719
λmax ([1]; in 0.1M sodium hydroxide): 275 nanometers
λmin ([1]; in 0.1M sodium hydroxide): 248 nanometers
ε min (NaOH), extinction coefficient ([1]; in 0.1M sodium hydroxide, at λmin): 6400 M⁻¹ cm⁻¹
pH dependence of the dissociation of iodothyronine from serum proteins [4]: independent of pH
